Measured values as given in US4692463A, “Antiinflammatory 2,3-didemethylcolchicine and additional derivatives” (The United States of America as represented by the …, priority 1985, dated 1987).

Columns and labels:
[1] = Toxicity measured in the P388 screen (weight loss in mice); assay type: in vivo; conditions: for Toxicity: dose which caused average weight loss in mice of 3 g or more: P388 screen
Source text: ^1 Measured in the P388 screen and defined as dose which caused
average weight loss in mice of 3 g or more.

[2] = tested on: tubulin protein; assay type: binding; conditions: in vitro
[3] = tested on: swelling produced by injecting carrageenin into the footpad; experiment: animal or person; assay type: in vivo, mice or rats; conditions: for Reduction of Swelling 3 hrs / Reduction of Swelling 5 hrs: dose 2 mg/kg i.p.; for Reduction of Swelling 3 hrs: 3 hours after; for Reduction of Swelling 5 hrs: 5 hours after; for minimal effective dose: Mus musculus, ip, classical drugs, carrageenin swelling screen, read-out: Dose level at which active (antiinflammatory)
Source text: The antiinflammatory properties of colchinoids can be evaluated in a classical screening that measures the reduction of swelling produced by injecting (i.p.) carrageenin into the footpad of mice or rats and drug treatment. The drugs can be given orally or intraperitoneally.
Drug given in carrageenine or thyrode solution by i.p.

## COc1c(O)c(O)cc2c1-c1ccc(OC)c(=O)cc1[C@@H](NC(C)=O)CC2 [2,3-Didemethylcolchicine]
[1]
  Toxicity: dose which caused average weight loss in mice of 3 g or more: 54
[1]; experimental animals
  Toxicity in comparison to colchicine (in words): much less toxic
[2]
  Binding to tubulin protein in comparison to colchicine (in words): bind less
[3]
  Reduction of Swelling 3 hrs: 70
  Reduction of Swelling 5 hrs: 60

## COc1cc2c(c(OC)c1OC)-c1ccc(OC)c(=O)cc1[C@@H](NC(C)=O)CC2 [Colchicine]
[1]
  Toxicity: dose which caused average weight loss in mice of 3 g or more: 2.5
[3]
  Reduction of Swelling 3 hrs: 44
  Reduction of Swelling 5 hrs: 45

## COc1c2c(cc3c1-c1ccc(OC)c(=O)cc1[C@@H](NC(C)=O)CC3)OCO2 [Cornigerine, 2,3-(Methylenedioxy)-2,3-didemethoxycolchicine]
[1]
  Toxicity: dose which caused average weight loss in mice of 3 g or more: 39
[3]
  Reduction of Swelling 3 hrs: 44
  Reduction of Swelling 5 hrs: 47

## COc1ccc2c(c1)c(CC(=O)O)c(C)n2C(=O)c1ccc(Cl)cc1 [indomethacine, reference compound]
[3]
  minimal effective dose: ≥ 100 mg/kg

## CCCCC1C(=O)N(c2ccccc2)N(c2ccccc2)C1=O [phenybutazone, reference compound]
[3]
  minimal effective dose: ≥ 100 mg/kg
